Target: T1, prostanoid receptor subtype (human EP4) (Homo sapiens, UniProt P35408)
T1 construct: expressed in transfected cells; host or cells: COS-7 cells (membrane fraction)
Assay: Binding assay using membrane preparation with the expression of prostanoid receptor subtype
Conditions: test compound at 1.0×10^−8 M (10 nM); competition with [^3H]-PGE2 10 nM; membrane fraction of COS-7 cells transfected with human EP4
Protocol: The radioactivity associated with the filter was measured by liquid scintillation counting.
The following buffer was used in all reactions.

T1 sequence (P35408 whole entry): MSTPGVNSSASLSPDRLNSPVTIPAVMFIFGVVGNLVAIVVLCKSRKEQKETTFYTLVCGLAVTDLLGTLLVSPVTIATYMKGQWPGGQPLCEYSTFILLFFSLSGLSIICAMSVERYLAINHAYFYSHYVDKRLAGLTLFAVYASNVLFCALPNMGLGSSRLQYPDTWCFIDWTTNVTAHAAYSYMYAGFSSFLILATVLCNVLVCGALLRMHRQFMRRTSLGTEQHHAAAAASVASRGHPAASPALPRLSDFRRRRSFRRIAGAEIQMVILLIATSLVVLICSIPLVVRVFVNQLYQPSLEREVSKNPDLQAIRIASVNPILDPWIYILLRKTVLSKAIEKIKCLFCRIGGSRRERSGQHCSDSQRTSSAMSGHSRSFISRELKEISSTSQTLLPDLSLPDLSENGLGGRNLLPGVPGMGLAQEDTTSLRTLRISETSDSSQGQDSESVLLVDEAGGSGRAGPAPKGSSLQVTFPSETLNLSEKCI

O=C(O)CCCCCNC(=O)[C@H](CCCNC(=O)OCc1ccccc1)NC(=O)c1cc2ccccc2o1 [Example 23, Sodium 6-{(2S)-2-[(1-benzofuran-2-yl-carbonyl)-amino]-5-[benzyloxycarbonylamino]pentanoylamino}-hexanoate]
inhibition at 0.01 µM: ≥ 80%

Source: US20070142638A1, “Ornithine derivatives as prostaglandin e2 agonists or antagonists” (Astellas Pharma Inc., priority 2003, published 2007)
